Test results: patent US4495186A, “Organometal complexes of N-cyclohexyl-piperazino acetamides or propionamides, preparation and use thereof as antiulcer-antisecretive-buffering drugs” (Camillo Corvi S.p.A., priority 1982, dated 1985)

What was measured:
[1] = from U.S. Pat. No. 4,123,530; cited from earlier work
rat = experiment: acute toxicity per os, rat; assay type: in vivo
Description: (§1) The acute toxicity of the complex salt of dihydroxy-aluminum-gluconate of N-cyclohexyl-piperazino acetamide is checked by the usual pharmacotoxicologic testing on the rat and mouse per os, the results of which are given in the following table.

antisecretive activity = assay type: in vivo; conditions: rat, os
[2] = buffering effect, HCl titration in vitro; assay type: physicochemical; conditions: 4.6 g sample in 400 ml 0.015 N HCl, 37° C., 0.1 N HCl at 1 ml/minute; minimum requirement
Protocol: Buffering effect: to 4.6 g of the sample, in a 1000 ml beaker, 400 ml of 0.015 N HCl are added, while keeping the temperature at 37° C. (thermostat). The pH is measured after 30 minutes, while controlling that it be maintained within 4.8.div.5.0. Then, by means of a burette, 0.1 N HCl is introduced at a rate of 1 ml/minute, to achieve a pH of 3.0. 165 ml of 0.1N HCl must be consumed at the very least.

[3] = system: From indomethacin experimental ulcer; experiment: antiulcer activity, ulcer from indomethacin; assay type: in vivo; conditions: rat, os
Description: (§2) The antiulcer activity has been tested on the rat for different types of experimental ulcer. The obtained therefrom is in Table 2.

[4] = system: Immobilization experimental ulcer; experiment: antiulcer activity, immobilization ulcer; assay type: in vivo; conditions: rat, os
Description: as §2

[5] = system: Phenylbutazone + hystamine experimental ulcer; experiment: antiulcer activity, phenylbutazone + hystamine ulcer; assay type: in vivo; conditions: rat, os
Description: as §2

[6] = system: Duodenal from cystamine experimental ulcer; experiment: antiulcer activity, duodenal ulcer from cystamine; assay type: in vivo; conditions: rat, i.d.
Description: as §2

Fast experimental ulcer = experiment: antiulcer activity, fast ulcer; assay type: in vivo; conditions: rat, os
Description: as §2

[7] = system: Reserpine experimental ulcer; experiment: antiulcer activity, reserpine ulcer; assay type: in vivo; conditions: rat, os
Description: as §2

Shay experimental ulcer = experiment: antiulcer activity, Shay ulcer; assay type: in vivo; conditions: rat, i.d.
Description: as §2

gastric hyperacidity = experiment: buffering activity (neutralizing action for gastric hyperacidity); assay type: in vivo; conditions: rat, os
mouse = experiment: acute toxicity per os, mouse; assay type: in vivo; conditions: fiduciary limits (6646.4-5862.2)
Description: as §1

Row | Compound | antisecretive and antiulcer activity [1] | toxicity (rat; rat and mouse per os, overall statement) | LD50 (rat; rat, os, fiduciary limits (8447.4-5264.6)) [mg/kg] | ED50 (antisecretive activity) (antisecretive activity) [mg/kg] | 0.1N HCl consumed to achieve a pH of 3.0 [2] [ml] | ED50 (antiulcer) [3] [mg/kg] | ED50 (antiulcer) [4] [mg/kg] | ED50 (antiulcer) [5] [mg/kg] | ED50 (antiulcer) [6] [mg/kg] | ED50 (antiulcer) (Fast experimental ulcer) [mg/kg] | ED50 (antiulcer) [7] [mg/kg] | ED50 (antiulcer) (Shay experimental ulcer) [mg/kg] | ED50 (buffering activity) (gastric hyperacidity) [mg/kg] | LD50 (mouse) [mg/kg]
1 | CC1CCC(NC(=O)CN2CCNCC2)CC1 (stereo not drawn) [N-4-methyl-cyclohexyl-1-piperazinylacetamide] | considerable | – | – | – | – | – | – | – | – | – | – | – | – | –
2 | O=C(CN1CCNCC1)NC1CCCCC1 [N-cyclohexyl-1-piperaziniylacetamide] | considerable | – | – | – | – | – | – | – | – | – | – | – | – | –
3 | Dihydroxy-aluminate-gluconate of N- cyclohexyl-1-piperazino-acetamide | – | very low | 6668.4 | 330 | ≥ 165 | 420 | 420 | 150 | 270 | 350 | 480 | 360 | 156 | 6241.9
